{"source": "paper PMC8097023", "about": "“Structures of a non-ribosomal peptide synthetase condensation domain suggest the basis of substrate selectivity” (Nature Communications, 2021)", "key": {"[1]": {"molecular_target": "T1, PCP2-C3 didomain of fuscachelin NRPS FscG (Thermobifida fusca, UniProt Q47NR9)", "T1 construct": "gene Tfu_1867; PCP2-C3 didomain fragment; C3 = residues 2558-2999, PPant site S2514; His-SUMO tag (pOPIN-S) cleaved; made in E. coli BL21(DE3) entD-; monomeric, two copies in the asymmetric unit, PCP2 at the acceptor site of the other chain", "T1 sequence (Q47NR9 2481-3008)": "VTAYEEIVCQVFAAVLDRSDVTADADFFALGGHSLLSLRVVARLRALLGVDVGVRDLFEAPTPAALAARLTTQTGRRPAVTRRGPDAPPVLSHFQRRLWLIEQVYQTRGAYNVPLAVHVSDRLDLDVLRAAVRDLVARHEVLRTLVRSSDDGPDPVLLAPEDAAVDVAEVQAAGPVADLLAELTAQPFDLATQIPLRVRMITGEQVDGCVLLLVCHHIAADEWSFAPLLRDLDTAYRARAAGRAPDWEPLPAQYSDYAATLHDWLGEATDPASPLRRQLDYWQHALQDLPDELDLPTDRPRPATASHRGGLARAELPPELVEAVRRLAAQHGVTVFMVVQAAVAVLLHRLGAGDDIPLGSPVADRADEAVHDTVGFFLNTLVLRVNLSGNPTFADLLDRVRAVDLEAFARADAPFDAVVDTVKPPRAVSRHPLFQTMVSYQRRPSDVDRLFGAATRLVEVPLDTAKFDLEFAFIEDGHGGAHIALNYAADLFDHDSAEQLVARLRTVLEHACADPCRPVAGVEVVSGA", "assay": "X-ray crystal structure, […] Å", "type": "binding", "details": "covalent; PPant on S2514 of PCP2; arm at C3 acceptor entrance, kept out of the active site by R2577"}, "[2]": {"molecular_target": "T2, PCP2-C3 didomain of fuscachelin NRPS FscG (Thermobifida fusca, UniProt Q47NR9, R2577G)", "T2 construct": "gene Tfu_1867; PCP2-C3 didomain fragment; C3 = residues 2558-2999, PPant site S2514; His-SUMO tag (pOPIN-S) cleaved; made in E. coli BL21(DE3) entD-; monomeric, two copies in the asymmetric unit, PCP2 at the acceptor site of the other chain", "T2 sequence (Q47NR9 entry or part of it R2577G)": "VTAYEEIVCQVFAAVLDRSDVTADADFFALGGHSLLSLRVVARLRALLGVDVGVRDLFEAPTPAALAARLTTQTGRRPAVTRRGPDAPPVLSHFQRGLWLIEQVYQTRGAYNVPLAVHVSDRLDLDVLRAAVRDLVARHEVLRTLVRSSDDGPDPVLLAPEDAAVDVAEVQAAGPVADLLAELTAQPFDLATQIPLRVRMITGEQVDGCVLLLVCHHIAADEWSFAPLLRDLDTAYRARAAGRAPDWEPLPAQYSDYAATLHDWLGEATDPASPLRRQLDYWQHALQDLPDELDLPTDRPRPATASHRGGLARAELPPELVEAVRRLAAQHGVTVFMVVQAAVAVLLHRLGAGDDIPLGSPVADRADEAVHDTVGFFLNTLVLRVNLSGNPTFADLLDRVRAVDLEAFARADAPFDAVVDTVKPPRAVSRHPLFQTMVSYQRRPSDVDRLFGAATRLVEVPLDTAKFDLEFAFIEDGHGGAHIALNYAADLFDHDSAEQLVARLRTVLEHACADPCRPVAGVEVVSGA", "assay": "X-ray crystal structure, […] Å", "type": "binding", "details": "covalent; PPant on S2514 of PCP2, fully extended through the acceptor channel into the C3 active site"}}, "data": [{"smiles": "CC(C)(COP(=O)(O)O)[C@@H](O)C(=O)NCCC(=O)NCCS", "note": "[PPant]", "values": [{"measurement": "X-ray crystal structure, 2.2 Å", "setting": "[1]", "value": "Having confirmed the presence of a PPant arm, we modeled this into the electron density"}, {"measurement": "X-ray crystal structure, 2 Å", "setting": "[2]", "value": "PPant moiety, which now fully extends thought the acceptor channel into the active site"}]}]}
